Data published in US20110020471A1, “ERYTHROCYTE ATP-RELEASE MODULATORS” (Wayne State University, priority 2007, published 2011).

Legend:
[1] = test system: rabbit red blood cells (RBCs); assay: Deformation-induced ATP release from rabbit RBCs pumped through microbore tubing (luciferin/luciferase chemiluminescence); type: cell-based
Experimental: (§1) Preparation of RBCs. Rabbits (New Zealand whites, males, 2.0-2.5 kg) were anesthetized with ketamine ([…], i.m.) and xylazine (1 mg/kg, i.m.) followed by pentobarbital sodium (15 mg/kg i.v.). A cannula was placed in the trachea and the animals were ventilated with room air. A catheter was placed into a carotid artery for administration of heparin and for phlebotomy. After heparin (500 units, i.v.), the animals were exsanguinated. Human blood was obtained by venipuncture without the use of a tourniquet (antecubital fossa) and collected into a heparinized syringe. Blood was centrifuged at 500×g at 4 C for 10 min. The plasma and buffy coat were discarded. The RBCs were resuspended and washed three times in a physiological salt solution [PSS, containing in mM: 4.7 KCl, 2.0 CaCl2, 140.5 NaCl […], 21.0 tris(hydroxymethyl)aminomethane, 11.1 dextrose with 5% bovine serum albumin (final pH 7.4)]. Cells were prepared on the day of use and experiments were finished within 8 hours of removal from the animal or human subjects. All procedures were approved by the Animal Investigation Committee or the Human Investigation Committee at Wayne State University.
(§2) Measurement of ATP. Human C-peptide (American Peptide Co., Sunnyvale, Calif.), 0.25 mg (MW=3020 g/mol), was dissolved in […] of purified water (18.2 megaohm) to yield a concentration of 83 μM. […] The resulting chemluminescence reaction flowed through a final potion of fused-silica microbore tubing that was placed over a photomultiplier tube, where the emission was detected. The resultant current was measured as a potential by a data acquisition board operated by a program written with the LabView software package (National Instruments, Austin, Tex.).
Introduction. […] Upon deformation in the tubing, the RBCs release ATP that is measured using a well-established chemiluminescence assay for ATP. The concentrations of RBC-derived ATP are measured in the presence and absence of synthetic C-peptide.
C-Peptide-Induced Release of ATP. RBCs obtained from rabbits are pumped through microbore tubing having an inside diameter of […] and the resultant ATP released by the cells upon deformation in the tubing is measured. […] Another aliquot from the same RBC sample is incubated in 1 nM C-peptide and the resultant ATP release measured every 2 h for a period up to 6 h. […] As shown, the ATP release (determined by a chemiluminescence assay) from those cells incubated in the c-peptide increased approximately 2.9 times over a period of […]. […] If cell lysis were occurring, the glybenclamide would have no affect on the measured ATP as it would be present in extracellular form whether or not glybenclamide was introduced to the RBCs. […]

RBCs [2] = assay: Loss of ATP-release bioactivity of C-peptide preparation in water (metaanalysis of repeats of Experiments 1 and 2); type: cell-based
RBCs [3] = assay: Lysis control: ATP signal of RBC solutions under non-flow conditions (luminometer); type: cell-based; details: 200 μL RBC solution and 200 μL luciferin/luciferase
Experimental: To ensure that the resulting increase in ATP release was due to C-peptide interacting with the RBCs and not cell lysis, the RBC solutions were measured under non-flow conditions using a luminometer with 200 μL of the RBC solution and 200 μL of the luciferin/luciferase solution. […] To ensure that lysis was not occurring in the tubing, a solution of 0.01 M glybenclamide was prepared by adding 49 mg of glybenclamide (Sigma) to 2 mL of a 0.1 M solution of sodium hydroxide. To this, 7.94 mL of a dextrose solution (1 g dextrose in 20 mL of purified water) was added. The mixture was heated carefully to 52° C. until all of the glybenclamide was dissolved. Once the solute was completely dissolved, 1 mL of this solution was added to 9 mL of PSS, resulting in a solution with a concentration 0.001 M. From this diluted solution, 2.5 mL were added to 2.5 mL of 7% hematocrit RBC solution, resulting in a 3.5% hematocrit solution of RBCs. This solution was allowed to incubate for 15 minutes. As a comparison, 2.5 mL of wash buffer without glybenclamide was added to 2.5 mL of 7% hematocrit RBCs. After 15 minutes, the RBC solutions were assayed.

[4] = Electrospray ionization mass spectrometry of C-peptide and metal adducts in aqueous solution; type: physicochemical; details: ESI-MS, remaining in solution for periods >30 days
Experimental: Mass Spectrometric Analysis of Metal-Peptide Binding. […] Thus, alternative postulated causes are tested, including that a covalent modification of the peptide, e.g., induction or lysis of a side-chain-to-side-chain bond or of a moiety covalently attached to an amino acid residue, might be involved, or that non-covalent interaction with another chemical species, e.g., a metal ion, might be involved in this effect.
The data in FIG. 3 reveal some information about the possible loss of activity of the C-peptide after preparation in the aqueous solvent. Specifically, the mass spectrum shown in FIG. 3a is that of peptide prepared in water and analyzed within 0.5 h of preparation. In 3a, the [M+3H]^3+ peak is present as are other forms of the peptide with sodium atoms, potassium atoms, or a combination thereof. […] The presence of this Fe(II) adduct to the C-peptide is not present 24 h after preparation.
Although the Fe(II)-bound C-peptide has the ability to increase ATP-release from deformed RBCs, its activity also appears somewhat limited. […] The unexpected result is that the population of Fe(II)-C-peptide adduct begins to diminish within 24 h after the addition of an Fe(II) source, and Fe(II) is then replaced by either sodium or potassium, or both, cations in the C-peptide complex.
Improving Metal-Induced Activity of C-Peptide. […]

diabetic human RBCs = assay: ATP release from RBCs of patients with type II diabetes; type: cell-based; details: for ATP release: diabetic human RBCs, ±SEM (n=7)
Experimental: as §1
as §2, with “μM. Next, an appropriate volume of this C-peptide solution was added to 10 mL of a 7% solution of RBCs to create a solution containing the C-peptide at concentrations in the 1-5 nM range.” for “μM.”, “Tex.). […]” for “Tex.).”

| Molecule | effect on the C-peptide-induced increase in ATP release ([1]; RBCs incubated in glybenclamide) | increase in ATP release versus control (buffer without C-peptide) ([1]; 1 nM C-peptide, over the 6 h period) | increase in ATP release ([1]; 1 nM c-peptide, over a period of 8 h, normalized values) | ability to induce ATP release from deformed RBCs ([1]; C-peptide kept at 4° C. for >30 days) | time to loss of bioactivity after preparation in water (RBCs [2]) [h] | ATP signal under non-flow conditions (RBCs [3]) | degradation or cleavage of the peptide in solution [4] | restoration of ATP release levels of diabetic RBCs (diabetic human RBCs; RBCs of patients with type II diabetes (n=7)) | ATP release (diabetic human RBCs; after 6 hours of incubation with freshly prepared C-peptide preparation) [nM] | ATP release (diabetic human RBCs; at 0 hours, freshly prepared C-peptide preparation) [nM] |
| --- | --- | --- | --- | --- | --- | --- | --- | --- | --- | --- |
| COc1ccc(Cl)cc1C(=O)NCCc1ccc(S(=O)(=O)NC(=O)NC2CCCCC2)cc1 [glybenclamide, reference compound] | can be inhibited | – | – | – | – | – | – | – | – | – |
| C-peptide: Human proinsulin C-peptide (American Peptide Co.), MW 3020 g/mol, synthetic (EAEDLQVGQVELGGGPGAGSLQPLALEGSLQ; (1)..(31) Hominidae sp. proinsulin C-peptide Human (Genbank P01308..gi124617), Chimpanzee (Genbank NP_001008996.1.. gi57113877), Orangutan (Genbank Q8HXV2..gi48428254), and Gorilla (Genbank AAM76640.1..gi23379796); listed as Hominidae sp.) | – | nearly three times that of the RBCs incubated with a control | approximately 2.9 times | no longer has the ability to induce ATP release from deformed RBCs | 24 to 36 | No detectable signals | not undergoing any type of degradation or cleavage | statistically equivalent to that of healthy, non-diabetic control patients | 256.1 ± 38.7 | 63.6 ± 12.6 |
